PubChem BioAssay AID1361 (SRMLSC, 2008)
Calls of active or inactive are those of the source. No rule for the calls is given here.

Test: blockers of mitochondrial fusion, WT vs mutant – cell-based, chemical genetic, wild-type and mutant, confirmation (AID 1361)
Settings: Cell-based mitochondrial fusion phenotype, imaging
[1] = mutant cells, measured here: mutant cell line IC50

Compound	IC50 (WT cells)	IC50 [1] [µM]
NC(=O)COC(=O)c1ccc(Cl)c(S(=O)(=O)N(Cc2ccccc2)c2ccc(Cl)cc2)c1	18.1 µM	> 25
CCSc1nnc(NC(=O)COc2ccc3ccccc3c2)s1	> 25 µM (inactive)	> 25
CCN1CCc2nc(NC(=O)c3ccccc3)sc2C1	> 25 µM (inactive)	> 12.5
Cc1cccc(-c2noc(CN(C(=O)CCc3ccccc3)C(C)C)n2)c1	> 25 µM (inactive)	24.5
C/C(=C\C(=O)c1ccccc1)Nc1cccc(O)c1	> 25 µM (inactive)	> 25
COc1nc(SC)nc(Cl)c1Cc1ccc(OC(C)C)cc1	24.1 µM	> 25
CS(=O)(=O)N(Cc1cc2ccccc2[nH]c1=O)C1CCCCC1	> 25 µM (inactive)	> 25
COC(=O)c1ccc(C2C3=C(Nc4nnnn42)c2ccccc2OC3)cc1 (stereo not drawn)	> 25 µM (inactive)	> 25
COc1ccc(C(=O)Nc2ccc(Cl)cc2C(=O)NCCN2CCOCC2)cc1	> 25 µM (inactive)	> 25
CC1=CC(C)(C)N(S(=O)(=O)c2ccc(C)cc2)c2cc(C)ccc21	11.1 µM	> 25
Cc1c(N(C(=O)Nc2ccccc2)C2=NCC(C)S2)c(=O)n(-c2ccccc2)n1C (stereo not drawn)	> 25 µM (inactive)	> 25
CC1=C(C#N)C(NC(=O)c2ccc(C)cc2)(C(F)(F)F)C(=O)N1 (stereo not drawn)	> 25 µM (inactive)	> 25
CCOC(=O)c1c(NS(=O)(=O)c2ccc(Br)cc2)sc2c1CCC2	12.6 µM	> 25
Cc1cc(C(=O)CSc2nnc(-c3ccc(Cl)cc3)n2CC2CCCO2)c(C)n1C (stereo not drawn)	> 25 µM (inactive)	> 25
Cc1ccc(-c2nnc(SCC(=O)N3CCOCC3)nc2-c2ccc(C)cc2)cc1	> 25 µM (inactive)	> 25
O=C(O)C1CCCCC1C(=O)Nc1ccc(F)cc1F (stereo not drawn)	> 25 µM (inactive)	> 25
S=C(NCCNCc1ccccc1)NC1CCCCC1	13.6 µM	> 25
Cc1cccc(NC(=S)NNC(=O)COc2ccc(Cl)cc2Cl)c1	10.9 µM	21
CCOc1ccc(NC(=S)N(CCc2c(C)[nH]c3ccc(C)cc23)Cc2ccco2)cc1	6.2 µM	> 25
COCCCn1c(SCC(=O)NC(C)(C)C)nnc1-c1ccccc1	> 25 µM (inactive)	> 25

Compound	IC50 (WT cells)	IC50 [1] [µM]
O=C1C(Cl)=C(NC2CCCCC2)C(=O)N1Cc1ccccc1	19.1 µM	> 25
CCOC(=O)c1sc(NC(=O)/C=C/c2cnn(CC)c2C)c(C(=O)OCC)c1C	> 25 µM (inactive)	> 25
Oc1ccccc1-c1nc(/C=C/c2ccccc2)nn1-c1ccccc1	11.2 µM	15.4
CCOC(=O)c1cc(-c2ccc3c(c2)OCO3)nc2onc(C)c12	> 25 µM (inactive)	> 25
COc1ccccc1NC(=O)CC1S/C(=N/N=C2\CCCc3ccccc32)NC1=O (stereo not drawn)	19.6 µM	> 25
CCOC(=O)c1c(NC(=O)c2cccs2)sc2c1CCCC2	> 25 µM (inactive)	> 25
COC(=O)[C@H](Cc1ccccc1)NC(=O)O[C@H]1C(=O)c2ccc(OC)cc2O[C@@H]1c1ccc2c(c1)OCO2	12.9 µM	> 25
c1ccc2c(c1)nc(CN1CCOCC1)n1c3ccccc3nc21	> 25 µM (inactive)	> 25
COc1cc(/C=N/n2cnnc2)ccc1OCc1ccccc1	> 25 µM (inactive)	> 25
COc1ccc(C2C(C#N)=C(SC)NC3=C2C(=O)CC(C)(C)C3)cc1 (stereo not drawn)	> 25 µM (inactive)	> 25
COc1ccccc1N1CCN(CC(=O)Nc2ccc(Cl)c(C(F)(F)F)c2)CC1	20.2 µM	> 25
O=C(N/N=C/C=C/c1ccccc1)C1CC1c1ccccc1 (stereo not drawn)	> 25 µM (inactive)	> 25
CCCC12CN3CCN(CC(C3)/C1=N\NC(=O)c1ccc(C(C)(C)C)cc1)C2	6.28 µM	20.2
COc1ccc(CCN(Cc2cc3cc(C)cc(C)c3nc2Cl)C(=O)C2CC2)cc1	7.6 µM	> 25
Cc1ccc(C(C(=O)NC2CCCCC2)N(Cc2ccco2)C(=O)Cc2c[nH]c3ccccc23)o1 (stereo not drawn)	21.2 µM	> 25
CC(C)=CCc1c(O)c(CC=C(C)C)c2c(c1O)C(=O)CC(c1ccc(O)cc1)O2 (stereo not drawn)	10.7 µM	> 25
COc1ccc(-c2nsc3c(N4CCCCC4C)ncnc23)cc1 (stereo not drawn)	18.9 µM	> 25
Cc1cc(C)nc(N2CCC(C(=O)NCCc3ccc(F)cc3)CC2)n1	> 25 µM (inactive)	> 25
N#CCC(=O)N/N=C/c1cc(-c2ccccc2)n(-c2ccc(Cl)cc2)c1-c1ccccc1	4.18 µM	> 25
CN1CC(c2ccccc2)C2(SC(=S)N(Cc3ccco3)C2=O)C12C(=O)Nc1ccccc12 (stereo not drawn)	6.9 µM	12

Compound	IC50 (WT cells)	IC50 [1] [µM]
N=c1c2c(n(Cc3ccc(F)cc3)c3c1CCC3)CCC2	11.2 µM	> 25
CCCCc1cc2c(s1)CCCC/C2=N/O	> 25 µM (inactive)	> 25
COc1ccc(NP(=O)(Oc2ccc(Cl)cc2)Oc2ccc(Cl)cc2)cc1OC	12.6 µM	> 25
CCCCCC[n+]1c(-c2ccccc2)csc1Nc1ccccc1	4.95 µM	14.8
CN1C(=S)SC(C)(C)C1(C)NO (stereo not drawn)	> 25 µM (inactive)	> 25
CC1(C)C=Cc2c(c3c(c4c(=O)c(-c5ccc(O)cc5)coc24)OC(C)(C)CC3)O1	14 µM	24.4
Cc1cc(-c2sccc2C)nc(-n2cccc2)n1	> 25 µM (inactive)	> 25
Cc1cc(Br)c(OCc2ccc(C(=O)N/N=C3\CC4CC=CC34)cc2)c(Br)c1 (stereo not drawn)	7.88 µM	14.2
O=C(CNC(=S)N(Cc1ccccc1)Cc1ccccc1F)NCc1ccccc1	17.7 µM	> 25
CCOC(=O)c1sc(NC(=O)/C=C/c2cnn(C)c2C)c(C(=O)OC(C)C)c1C	> 25 µM (inactive)	> 25
C/C=C(\C)CN1CCN(c2cc(C)ccc2C)CC1	> 25 µM (inactive)	> 25
COc1ccc(CNC(=O)[C@H](C)[C@@H]2C[C@@]2(C)[C@@H](NC(=O)OCc2ccccc2)c2ccccc2)cc1OC	22.6 µM	> 25
CCc1c(C)nc2[nH]nc(-c3ccccc3)n2c1=O	> 25 µM (inactive)	> 25
CCN(Cc1ccccc1)C(c1ccc(C(F)(F)F)cc1)c1nnnn1C(C)(C)C (stereo not drawn)	8.69 µM	> 25
CCCn1c(CN(Cc2ccccc2)Cc2ccccc2)nc2c1c(=O)n(C)c(=O)n2C	20.6 µM	> 25
O=C(COC(=O)c1ccc([N+](=O)[O-])s1)Nc1ccccc1	17.7 µM	> 25
Cc1cccc(NC(=S)N=Nc2c(O)[nH]c3ccccc23)c1	> 25 µM (inactive)	> 25
Cc1cccc(COCC(CC(C)C)N2CCN(C(=O)c3ccc(C(C)(C)C)cc3)CCC2=O)c1 (stereo not drawn)	14.7 µM	> 25
CCCCCCc1nc2ccccc2c(=O)n1NC(=O)c1c(O)c2cccc3c2n(c1=O)CCC3	10.5 µM	> 25
